Read-outs that look alike come from different tables or passages of the source. Starred links: 1 amine or outer side, 2 acyl side, 3 side chain; linkers in the order of their positions; H or OH if unused. Positions of bridges follow the written chain, without caps; N, C: chain ends. Non-standard residues stand in square brackets, D forms with d. Residues, ends and D or L forms follow the SMILES beside them. *: point of attachment. hTyr(3S-OH,4S-OH,3'-OSO3H) = N[C@H](C(=O)O)[C@H](O)[C@@H](O)c1ccc(O)c(OS(=O)(=O)O)c1; pTerphenylCO(4''-OnC5H11) = CCCCCOc1ccc(-c2ccc(-c3ccc(C(=O)*)cc3)cc2)cc1; Orn(4R-OH,5R-OH) = O=C([C@H](C[C@@H](O)[C@@H](O)N[*:3])N[*:1])[*:2]; hTyr(3S-OH,4S-OH) = N[C@H](C(=O)O)[C@H](O)[C@@H](O)c1ccc(O)cc1; Pro(3S-OH,4S-Me) = C[C@H]1CN[C@H](C(=O)O)[C@H]1O; X1 = CCCCCOc1ccc(-c2cc(-c3ccc(C(=O)*)cc3)no2)cc1; Gln(3R-OH) = NC(=O)C[C@@H](O)[C@H](N)C(=O)O; Hyp = O=C(O)[C@@H]1C[C@@H](O)CN1
What was measured:
[1] = Concentration in arterial plasma of critically ill adults drawn simultaneously with CSF, HPLC-UV; type: in vivo, human; settings: for AUC(0-t) / half-life / Cmax / Tmax: intravenous; for AUC(0-t): read-out: AUC0–24 in plasma; for half-life: read-out: t1/2 (half-life) in plasma (converted); for Cmax: read-out: Cmax (peak concentration) in plasma; for Tmax: read-out: Tmax (time to Cmax) in plasma
Experimental: CSF was taken during diagnostic lumbar puncture (LP) or via external ventricular drain (EVD) from critically ill adults treated with anidulafungin or micafungin. Simultaneously, we took 2-ml arterial blood samples. CSF and plasma were stored at –80°C.
Anidulafungin and micafungin concentrations were quantified by high-performance liquid chromatography and UV detection (HPLC-UV) as described previously ([5]). Noncompartmental pharmacokinetics was calculated with Kinetica 2000 (InnaPhase Corporation, Champs-sur-Marne, France). The area under the concentration-time curve from 0 to 24 h (AUC0–24) was computed with the log-linear method when the concentration in a trapezoid decreased or with the trapezoidal method when the concentration increased.

[2] = Concentration in autopsy samples of cerebral cortex of deceased patients, HPLC-UV; type: in vivo, human
Experimental: The cerebral cortex of deceased patients who had received anidulafungin or micafungin within their last 30 days of life was sampled during autopsy, which is routinely performed for quality assurance in Austrian hospitals. Anidulafungin and micafungin were extracted from 0.2 g of tissue by addition of 250 μl of acetonitrile and 250 μl of methanol (Sigma-Aldrich, Vienna, Austria), homogenization with a Precellys homogenizer (Bertin Instruments, Montigny-le-Bretonneux, France) at 4,500 rpm (twice for 25 s, 2-s break), and centrifugation for 5 min at 8°C and 4,665 × g. For calibration, we used porcine brain samples spiked with anidulafungin or micafungin and homogenized and proceeded in the same manner. Both echinocandins were quantified by HPLC-UV at 306 nm ([5]). The lower limit of quantification was 0.05 μg/g for anidulafungin and 0.10 μg/g for micafungin. The extraction recovery from brain was ∼40% and ∼60% for anidulafungin and micafungin, respectively.

[3] = Stability in brain tissue at 4°C; type: in vitro ADME, human; settings: brain tissue at 4°C (storage temperature of the corpses)
Experimental: (§1) In brain specimens, we cannot rule out minor agonal or postmortem changes of anidulafungin and micafungin concentrations, although anidulafungin and micafungin were stable in the brains of deceased patients for at least 96 h. Brain specimens consist of various compartments, e.g., different cells, extracellular matrix, and blood vessels. Anidulafungin and micafungin were not quantified on a cellular level or in different brain areas. Echinocandin extraction from human brain might yield slightly lower recovery than extraction from external standards. In rats, [^3H]caspofungin brain concentrations were ≤0.16 μg eq/g ([17]). In rabbits, micafungin brain concentrations were <0.19 μg/g, and those of anidulafungin were <4.0 μg/g ([18], [19]). In a biopsy sample of a brain abscess, a micafungin concentration of 0.26 μg/g was measured ([20]).

[4] = cumulative dose 200 mg; for Cmax (peak concentration) in CSF: steady state not reached
[5] = test system: Candida strains; settings: pharmacodynamic target, not achieved in CSF of patients 2 and 5; cited from earlier work
Experimental: In some of the CSF and brain specimens, measured anidulafungin and micafungin concentrations were below the MICs reported for relevant Candida species (i.e., 0.008 to 4.0 μg/ml) ([6]). […] However, the relevance of in vitro MIC values for antifungal activity of echinocandins in CSF and in CNS remains to be clarified. In CSF, protein binding of anidulafungin and micafungin is unk ...

[6] = cited from earlier work
Experimental: as §1, with “brain” for “brain concentrations were ≤0.16 μg eq/g ([17]). In rabbits, micafungin brain concentrations were <0.19 μg/g, and those of anidulafungin were <4.0 μg/g ([18], [19]). In a biopsy sample of a brain abscess, a micafungin”, “...” for “of 0.26 μg/g was measured ([20]).”

[7] = clinical; settings: human, in vivo, iv
[8] = cited from earlier work; remark: listed apart in the source
[9] = human, plasma, patient 2, cumulative dose 200 mg, treatment day 1, noncompartmental
[10] = patient 2, external ventricular drainage, treatment day 1, noncompartmental
[11] = human, plasma, patient 5, cumulative dose 200 mg, treatment day 2, noncompartmental
[12] = patient 5, external ventricular drainage, treatment day 2, noncompartmental

CCCCCOc1ccc(-c2ccc(-c3ccc(C(=O)N[C@H]4C[C@@H](O)[C@@H](O)NC(=O)[C@@H]5[C@@H](O)[C@@H](C)CN5C(=O)[C@H]([C@@H](C)O)NC(=O)[C@H]([C@H](O)[C@@H](O)c5ccc(O)cc5)NC(=O)[C@@H]5C[C@@H](O)CN5C(=O)[C@H]([C@@H](C)O)NC4=O)cc3)cc2)cc1 [anidulafungin] ({pTerphenylCO(4''-OnC5H11)}-[Orn(4R-OH,5R-OH)]T[Hyp][hTyr(3S-OH,4S-OH)]T[Pro(3S-OH,4S-Me)]; lactam 1-C)
AUC(0-t) [1, 9]: 29400 ng·h/mL | half-life [1, 9]: 14.7 h | Cmax ([1]; human, plasma, patient 2, cumulative dose 200 mg, treatment day 1, sampling before and 1, 4, 8, 12, 18, 24 h after start of infusion, steady state not reached): 2720 ng/mL | Tmax ([1]; human, plasma, patient 2, cumulative dose 200 mg, treatment day 1): 1 h | level at 0.5 h ([1]; human, plasma, iv, 2500 mg, patient 3, arterial blood simultaneous with lumbar puncture, cumulative dose 2,500 mg, treatment day 24, 0.5 h from start of infusion, steady state, read-out: Plasma concn): 5070 ng/mL | level at 3 h ([1]; human, plasma, iv, patient 1, arterial blood simultaneous with lumbar puncture, cumulative dose 300 mg, treatment day 3, 3.0 h from start of infusion, steady state not reached, read-out: Plasma concn): 3830 ng/mL | Cmin (trough concentration) in plasma ([1]; patient 2, cumulative dose 200 mg, treatment day 1, steady state not reached): 770 ng/mL | tissue level at time at 29 h ([2]; human, cerebral cortex, 1200 mg, patient 10, cumulative dose 1,200 mg, treatment 11 days, 29 h between last administration and death, 21 h between death and sampling, LLOQ 0.05 μg/g, read-out: Concn in cerebral cortex (autopsy)): 1580 ng/g | tissue level at time at 12 h ([2]; human, cerebral cortex, 1500 mg, patient 9, cumulative dose 1,500 mg, treatment 14 days, 12 h between last administration and death, 15 h between death and sampling, LLOQ 0.05 μg/g, read-out: Concn in cerebral cortex (autopsy)): 2340 ng/g | tissue level at time at 313 h ([2]; human, cerebral cortex, 1800 mg, patient 8, cumulative dose 1,800 mg, treatment 17 days, 313 h between last administration and death, 25 h between death and sampling, LLOQ 0.05 μg/g, read-out: Concn in cerebral cortex (autopsy)): 280 ng/g | tissue level at time at 32 h ([2]; human, cerebral cortex, patient 7, cumulative dose 700 mg, treatment 6 days, 32 h between last administration and death, 14 h between death and sampling, LLOQ 0.05 μg/g, read-out: Concn in cerebral cortex (autopsy)): 210 ng/g | Time stable in brain tissue [3]: at least 96 h | Tmax (time to Cmax) in CSF ([4]; patient 2, external ventricular drainage, treatment day 1): 1 h | AUC0–24 in CSF [4, 10]: 2090 ng·h/mL | t1/2 (half-life) in CSF [4, 10]: 7.90 h | Cmax (peak concentration) in CSF ([4]; patient 2, external ventricular drainage, treatment day 1, sampling before and 1, 4, 8, 12, 18, 24 h after start of infusion): 660 ng/mL | Cmin (trough concentration) in CSF ([4]; patient 2, external ventricular drainage, treatment day 1, steady state not reached): 30 ng/mL | Target AUC0–24/MIC ratio suggested [5]: 2,782 | Brain concentrations ([6]; rabbits): < 4.0 µg/g | Kp ([7]; 200 mg): 0.07 | Kp at 3 h ([7]; 300 mg): 0.01 | Kp at 0.5 h ([7]; 2500 mg): < 0.002

CCCCCOc1ccc(-c2cc(-c3ccc(C(=O)N[C@H]4C[C@@H](O)[C@@H](O)NC(=O)[C@@H]5[C@@H](O)[C@@H](C)CN5C(=O)[C@H]([C@H](O)CC(N)=O)NC(=O)[C@H]([C@H](O)[C@@H](O)c5ccc(O)c(OS(=O)(=O)O)c5)NC(=O)[C@@H]5C[C@@H](O)CN5C(=O)[C@H]([C@@H](C)O)NC4=O)cc3)no2)cc1 [micafungin] (X1-[Orn(4R-OH,5R-OH)]T[Hyp][hTyr(3S-OH,4S-OH,3'-OSO3H)][Gln(3R-OH)][Pro(3S-OH,4S-Me)]; lactam 1-C)
AUC(0-t) [1, 11]: 113000 ng·h/mL | half-life [1, 11]: 12.9 h | Cmax ([1]; human, plasma, patient 5, cumulative dose 200 mg, treatment day 2, sampling before and 1, 4, 8, 12, 18, 24 h after start of infusion, steady state not reached): 8700 ng/mL | Tmax ([1]; human, plasma, patient 5, cumulative dose 200 mg, treatment day 2): 1 h | level at 2.5 h ([1]; human, plasma, iv, 1300 mg, patient 6, arterial blood simultaneous with lumbar puncture, cumulative dose 1,300 mg, treatment day 13, 2.5 h from start of infusion, steady state, read-out: Plasma concn): 3510 ng/mL | level at 16 h ([1]; human, plasma, iv, patient 4, arterial blood simultaneous with lumbar puncture, cumulative dose 200 mg, treatment day 2, 16.0 h from start of infusion, steady state not reached, read-out: Plasma concn): 1210 ng/mL | Cmin (trough concentration) in plasma ([1]; patient 5, cumulative dose 200 mg, treatment day 2, steady state not reached): 2160 ng/mL | Time after treatment at which the drug was still measurable in cerebral cortex ([2]; autopsy samples of deceased patients): 10 days | tissue level at time at 712 h ([2]; human, cerebral cortex, 1100 mg, patient 11, cumulative dose 1,100 mg, treatment 19 days, 712 h between last administration and death, 58 h between death and sampling, LLOQ 0.10 μg/g, read-out: Concn in cerebral cortex (autopsy)): < 100 ng/g | tissue level at time at 235 h ([2]; human, cerebral cortex, 4000 mg, patient 16, cumulative dose 4,000 mg, treatment 39 days, 235 h between last administration and death, 29 h between death and sampling, LLOQ 0.10 μg/g, read-out: Concn in cerebral cortex (autopsy)): 190 ng/g | tissue level at time at 111 h ([2]; human, cerebral cortex, intravenous, 1800 mg, patient 13, cumulative dose 1,800 mg, treatment 18 days, 111 h between last administration and death, 38 h between death and sampling, LLOQ 0.10 μg/g, read-out: Concn in cerebral cortex (autopsy)): 180 ng/g | tissue level at time at 230 h ([2]; human, cerebral cortex, intravenous, 5300 mg, patient 12, cumulative dose 5,300 mg, treatment 28 days, 230 h between last administration and death, 85 h between death and sampling, LLOQ 0.10 μg/g, read-out: Concn in cerebral cortex (autopsy)): 1520 ng/g | tissue level at time at 99 h ([2]; human, cerebral cortex, patient 14, cumulative dose 500 mg, treatment 4 days, 25 h between last administration and death, 74 h between death and sampling, LLOQ 0.10 μg/g, read-out: Concn in cerebral cortex (autopsy)): 2880 ng/g | tissue level at time at 324 h ([2]; human, cerebral cortex, patient 15, cumulative dose 300 mg, treatment 3 days, 324 h between last administration and death, 80 h between death and sampling, LLOQ 0.10 μg/g, read-out: Concn in cerebral cortex (autopsy)): < 100 ng/g | Time stable in brain tissue [3]: at least 96 h | Tmax (time to Cmax) in CSF ([4]; patient 5, external ventricular drainage, treatment day 2): 4 h | Cmin (trough concentration) in CSF ([4]; patient 5, external ventricular drainage, treatment day 2, LLOQ 0.01 μg/ml): <10 ng/mL | AUC0–24 in CSF [4, 12]: 2010 ng·h/mL | t1/2 (half-life) in CSF [4, 12]: 13.80 h | Cmax (peak concentration) in CSF ([4]; patient 5, external ventricular drainage, treatment day 2, sampling before and 1, 4, 8, 12, 18, 24 h after start of infusion): 160 ng/mL | Target AUC0–24/MIC ratio suggested [5]: 5,299 | Concentration in biopsy sample of a brain abscess [6]: 0.26 µg/g | Brain concentrations ([6]; rabbits): < 0.19 µg/g | Kp ([7]; 200 mg): 0.02 | Kp at 16 h ([7]; 200 mg): 0.08 | level at 16 h ([7]; 200 mg): 90 ng/mL | Kp at 2.5 h ([7]; 1300 mg): 0.03 | CSF concentration ([8]; cerebral aspergillosis, 2-fold maximum dose, 300 mg/day): < 0.02 µg/mL

Caspofungin
Detection in CSF ([8]; human, in vivo): undetectable | Detection in CSF ([8]; in 9 of 11 CSF samples from children with hematological malignancies): undetectable

[^3H]caspofungin
Brain concentrations ([6]; rats): ≤ 0.16 μg eq/g

From PMC7318006, “Anidulafungin and Micafungin Concentrations in Cerebrospinal Fluid and in Cerebral Cortex” (Antimicrobial Agents and Chemotherapy, 2020)
